Results on 53 compounds are retold here after PubChem BioAssay AID179 (DTP/NCI, 2004).

The test system of this assay is CEM cells HIV-1 protection, formazan growth assay. Nature of the assay: NCI AIDS Antiviral Assay. The following applies: for IC50: measured here: growth of uninfected CEM cells. An outline of the steps:
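Human CEM cells, uninfected and HIV-1-infected, exposed to five drug concentrations; growth measured by soluble formazan assay and scored as percent protection from infection, with protecting compounds retested.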

Calls of active or inactive are those of the source.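 The calls were made as follows: active = compounds giving half or more protection of infected cells from virus-caused growth loss, again on retest; inactive = the rest.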 A value given as a limit tells only on which side of the number the result lay.

A word on the EC50: it is the concentration that produces a half-maximal response. As usually defined, the IC50 is the concentration that gives 50% inhibition. For the compound `Nc1c(N2CCCCC2)c(=O)nc2[nH]/c(=C\c3ccccc3)c(=O)n12`, the EC50 was above 200 µM and the concentration for half-maximal inhibition (IC50) is 95.5 µM.
The matching figures for `CC(=O)/C=C\C(=O)NNS(=O)(=O)c1ccc(C)cc1`: above 891 µM and 832 µM.
The matching figures for `C[C@]12Cc3cn[nH]c3C(=O)C1CC[C@@H]1C2CC[C@@]2(C)C1CC[C@@H]2O` (stereo not given in full): 20 µM and 21.9 µM.
On to `COc1cc(CNc2nc3ccccc3n2Cc2ccccc2)cc(CN2CCOCC2)c1O`, for which the EC50 is above 200 µM and the IC50 was determined as 32.4 µM.
For the compound `C=CCN1CCC(C(=O)CC)(c2ccccc2)CC1`, the EC50 was above 355 µM and the IC50 was determined as 166 µM.
With `Cc1cc(O)c(C=O)c2c1C(=O)Oc1c(CO)c(O)c3c(c1O2)C(O)OC3=O` (stereo not given), the EC50 was above 57.5 µM and the IC50 was above 57.5 µM.
Take `O=[N+]([O-])c1ccccc1/C=C/c1ccccn1`: the EC50 is above 16.6 µM and the IC50 was above 16.6 µM.
For the compound `CC1=C(C#N)C2(C(=O)Nc3ccccc32)C(C#N)=C(C)N1`, the EC50 is above 162 µM and the half-inhibitory concentration (IC50) was above 162 µM.
Compound `O=c1ccc2c(-c3ccccc3O)c3ccc(O)cc3oc-2c1` yielded an EC50 above 95.5 µM and an IC50 of 17.4 µM.
As to `Oc1ccccc1C1C=C(c2ccccc2)NC(N2CCCCC2)=C1c1nc2ccccc2[nH]1` (stereo not given), the outcome was inactive.
`c1cc2[nH]snc2c2cncc12`: the EC50 is above 200 µM and the IC50 was determined as 11.2 µM.
The like results for `Cc1ccc(NC(=O)CC/C(CC(=O)C(C)(C)C)=N/NC(=O)C[N+](C)(C)C)cc1C` were, in that order, above 209 µM and above 209 µM.
The like results for `C/C(=C\C(=O)OCCCCCCCC(N)=O)C(O)[C@@H]1OCC(C/C=C/[C@@H](C)[C@H](C)O)[C@@H](O)[C@H]1O` (stereo not given in full) were, in that order, above 200 µM and above 200 µM.
Consider `N#CC(C#N)=C(C(C#N)C#N)C(C#N)C#N`, for which the result was inactive.
Regarding `COC1Nc2nc3ccccc3nc2NC1OC` (stereo not given), the EC50 is above 363 µM and the IC50 worked out at 66.1 µM.
The matching figures for `O=C(O)c1cnc2c(ccc3[nH]cccc32)c1=O`: above 75.9 µM and above 75.9 µM.
As to `O=S(=O)(Nc1nc2ccccc2n1S(=O)(=O)c1ccccc1)c1ccccc1`, the EC50 was 81.3 µM and the IC50 was determined as 97.7 µM.
The matching figures for `CN1C2CCCC1CC(=O)NC2` (stereo not given): above 1480 µM and above 1480 µM.
For `CO/N=C1/c2sccc2[C@H](NC(=O)C(Cc2ccccc2)NC(=O)OC(C)(C)C)[C@@H]1O` (stereo not given in full), the EC50 is above 200 µM and the IC50 was above 200 µM.
Take `COC/N=C(\NC#N)NCOC`: the EC50 was above 525 µM and the half-inhibitory concentration (IC50) was above 525 µM.
On to `Cn1c2c(c3ccccc31)CCN(CCCCN1CCCCC1)C2=O`, for which the EC50 is above 372 µM and the IC50 came to 58.9 µM.
The matching figures for `Cc1cc(=O)oc2c(CNC(C(=O)O)C(C)O)c(O)ccc12` (stereo not given): above 200 µM and above 200 µM.
The matching figures for `COC(=O)C(C(=O)C(=O)Nc1ccc([N+](=O)[O-])cc1)c1nc2ccc([N+](=O)[O-])cc2[nH]c1=O` (stereo not given): above 57.5 µM and above 57.5 µM.
As for `CCOc1ccc(OCC)c([P+](c2ccccc2)(c2ccccc2)c2ccccc2)c1`, the result was inactive.
On to `COc1cc(C2c3cc4c(cc3C(O)[C@H]3COC(=O)C23)OCO4)cc(OC)c1O` (stereo not given in full), for which the EC50 was above 200 µM and the IC50 came to 0.0631 µM.
The like results for `CCOC(=O)c1ccc(-c2cc(C)[nH]n2)[nH]1` were, in that order, above 200 µM and 77.6 µM.
With `Cc1ccc(C2CC(c3ccc([N+](=O)[O-])cc3)=Nc3ccccc3S2)cc1` (stereo not given), the EC50 was above 13.8 µM and the IC50 came to 7.76 µM.
Consider `O=S(=O)(/N=S(/Nc1ccccc1)C(Cl)Cl)c1ccccc1` (stereo not given), for which the EC50 was above 200 µM and the IC50 is above 200 µM.
For `COc1cc2c(c(C)c1O)[C@H]1Cc3ccccc3[C@H]1O2`, the EC50 is above 7.41 µM and the 50% inhibitory concentration (IC50) is above 7.41 µM.
For `NS(=O)(=O)c1ccc(NC(=O)C2C(=O)C(=O)N(c3ccc(S(N)(=O)=O)cc3)C2=O)cc1` (stereo not given), the result was inactive.
For the compound `Cc1c(NC(=O)OCc2ccccc2)no[n+]1[O-]`, the EC50 is above 550 µM and the half-inhibitory concentration (IC50) was 129 µM.
The matching figures for `Oc1ccc(-c2nc(=S)[nH][nH]2)cc1`: above 933 µM and 72.4 µM.
The like results for `CCOC(C)O[C@H]1C(=O)OCC1(C)C` (stereo not given in full) were, in that order, 77.6 µM and above 200 µM.
The like results for `NS(=O)(=O)c1nnc(NS(=O)(=O)c2ccc(Cl)cc2)s1` were, in that order, above 200 µM and above 200 µM.
With `CCO/C=N/C1=C(C#N)SC2=N/C(=C\c3ccccc3)C(=O)N21`, the EC50 was above 200 µM and the IC50 came out at 77.6 µM.
The like results for `COc1ccc(NC(=O)/C(=C/c2ccccc2)C(C)=O)cc1` were, in that order, above 123 µM and 18.6 µM.
Turning to `CC1(C)OC2OC(CO)C(N)C2O1` (stereo not given), the outcome was inactive.
Regarding `C=CCNC(=O)CN(CC(=O)O)C1CCCCC1N(CC(=O)O)CC(=O)O` (stereo not given), the EC50 is above 200 µM and the IC50 was above 200 µM.
As to `COC(=O)[C@@]1(C)CCC[C@]2(C)C3(O)C(C)C(=O)O[C@H](c4ccoc4)C3C(OC(C)=O)C21O` (stereo not given in full), the EC50 was above 200 µM and the concentration for half-maximal inhibition (IC50) was above 200 µM.
For `CCN(CC)CCCC(C)Nc1cc(-c2ccccc2)nc2cc(OC)ccc12` (stereo not given), the EC50 is above 363 µM and the IC50 was determined as 0.741 µM.
The matching figures for `Cc1cc(-c2ccc(N=Nc3ccc4c(S(=O)(=O)[O-])cc(S(=O)(=O)[O-])c(N)c4c3O)c(C)c2)ccc1N=Nc1ccc2c(S(=O)(=O)[O-])cc(S(=O)(=O)[O-])c(N)c2c1O.[Ga]`: 1.12 µM and 38.9 µM.
With `CC(C)CC(=O)NC(NC(C)C)(C(F)(F)F)C(F)(F)F`, the EC50 is above 200 µM and the IC50 is above 200 µM.
In the case of `Nc1nc(N)c(C2=CCN(Cc3ccccc3)CC2)c(=O)[nH]1`, the EC50 was above 200 µM and the IC50 is above 200 µM.
Take `COCN1CCC2N(COC)CCC3N(COC)CCC1N23` (stereo not given): the outcome was inactive.
Regarding `Cc1coc2c1[C@@H](O)[C@@]1(C)[C@H](CCC[C@@H]1C)C2`, the EC50 is above 200 µM and the IC50 was 35.5 µM.
With `CN1C(=O)C(O)Nc2ncncc21` (stereo not given), the EC50 was above 200 µM and the IC50 was determined as 32.4 µM.
The matching figures for `Nc1nc(Nc2ccc(Cl)c(Cl)c2)nc2nc[nH]c12`: above 200 µM and 20.9 µM.
The like results for `O=C1C2C(C(=O)N1O)N(Cc1ccccc1)C(=O)N2Cc1ccccc1` (stereo not given) were, in that order, above 708 µM and above 708 µM.
The like results for `COc1ccc(/C=C/C(=O)c2cc(C(C)(C)C)c(O)c(C(C)(C)C)c2)cc1` were, in that order, above 10.2 µM and 5.01 µM.
Regarding `N#CCCN(CCC#N)c1ccc(/C=C2\N=C(c3cc([N+](=O)[O-])ccc3Cl)N(NC(=O)CC(=O)Nc3ccccc3Cl)C2=O)cc1`, the EC50 is above 11 µM and the IC50 was above 11 µM.
Consider `Nc1[nH]nc2nc3ccc(C(F)(F)F)cc3nc12`, for which the EC50 is above 200 µM and the IC50 amounted to 29.5 µM.
In the case of `N#Cc1c(-c2ccc(Cl)c(Cl)c2)c(-c2ccc(Cl)c(Cl)c2)nn(CCO)c1=O`, the EC50 is above 41.7 µM and the IC50 came to 0.759 µM.
The like results for `Nc1ccn(C2CC(F)C(CO)S2)c(=O)n1` (stereo not given) were, in that order, above 25.1 µM and above 25.1 µM.
